Some test systems named below: NCI-H226 lung; HOP-92 NSCLC; CAKI-1 renal; PC-3 prostate; RXF 393 renal; HS 578T breast; RPMI-8226 leukemia; SW-620 colon; BT-549 breast; MCF7 breast.
Test in all cases: DTP human tumour cell line panel, 48 h

Values joined by “and” are separate entries in the source; they are usually repeats but may differ in a detail not shown here. Equal entries are not always repeated.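 A five-concentration, 48-hour dose response in 96-well plates underlies each endpoint, interpolated linearly between surrounding concentrations. GI50 = concentration required for 50% inhibition of growth. TGI denotes the concentration required for complete inhibition of growth.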 Some results are limits rather than exact numbers.

As for `O=[N+]([O-])c1ccc2[nH]nc(OCc3ccccc3Cl)c2c1`, the total growth inhibition concentration (TGI) is greater than 100 µM with NCI-H226 lung; 47.4 µM with HOP-92 NSCLC; greater than 100 µM in the assay with CAKI-1 renal; greater than 100 µM with PC-3 prostate; 48.2 µM with RXF 393 renal; greater than 100 µM in the assay with HS 578T breast. Also, the TGI in the assay with RPMI-8226 leukemia is greater than 100 µM.

As for `NS(=O)(=O)c1nnc(NC(=O)Nc2ccc(Cl)c(Cl)c2)s1`, the total growth inhibition concentration (TGI) is 65.8 µM with NCI-H226 lung; 42.3 µM in the assay with HOP-92 NSCLC; greater than 100 µM with SW-620 colon; 78.8 µM in the assay with CAKI-1 renal; 35.3 µM in the assay on RXF 393 renal; 52.2 µM in the assay with BT-549 breast. The figures for the TGI in the assay with MCF7 breast, in the assay on HS 578T breast and in the assay with RPMI-8226 leukemia were 88.3 µM, 75.9 µM and 51.5 µM, respectively.

As to `NC(=O)C(=Cn1c(=S)[nH]c2ccc([N+](=O)[O-])cc21)C(N)=O`, the total growth inhibition concentration (TGI) with NCI-H226 lung, in the assay on HOP-92 NSCLC, in the assay on SW-620 colon, in the assay on CAKI-1 renal, in the assay with RXF 393 renal and in the assay with BT-549 breast was greater than 100 µM in each case.

For `COc1ccc2cc1Oc1ccc(cc1)C[C@H]1c3cc(c(OC)cc3CCN1C)Oc1c(O)c(OC)cc3c1[C@H](C2)N(C)CC3`, the TGI came to 63 µM in the assay on NCI-H226 lung; 26.9 µM with HOP-92 NSCLC; 37.2 µM in the assay with SW-620 colon; 3.55 µM in the assay on CAKI-1 renal; 45 µM in the assay with RXF 393 renal; 51.5 µM with MCF7 breast. For the same compound, the TGI with RPMI-8226 leukemia worked out at 75.2 µM.

With `CCC(=O)NC(Nc1cc(C)on1)(C(F)(F)F)C(F)(F)F`, the TGI with NCI-H226 lung, with HOP-92 NSCLC, in the assay with SW-620 colon, in the assay with CAKI-1 renal, in the assay with RXF 393 renal and in the assay on BT-549 breast was greater than 100 µM each time. In addition, the TGI with MCF7 breast, in the assay on HS 578T breast and in the assay on RPMI-8226 leukemia was greater than 100 µM each time.

As for `CC1CN(C)c2ccccc2N=C1NN` (centres undefined), the TGI in the assay on NCI-H226 lung is greater than 100 µM; with SW-620 colon, greater than 100 µM; in the assay on CAKI-1 renal, greater than 100 µM; with PC-3 prostate it was greater than 100 µM; with RXF 393 renal, 78.6 µM; in the assay on BT-549 breast, greater than 100 µM. Further, the TGI in the assay on HS 578T breast and with RPMI-8226 leukemia was greater than 100 µM each time.

For the compound `COc1ccc(-n2c(C)nc3ccc(NC(=S)Nc4ccccc4)cc3c2=O)cc1`, the total growth inhibition concentration (TGI) in the assay with NCI-H226 lung, in the assay with SW-620 colon, with CAKI-1 renal, in the assay with PC-3 prostate, in the assay on RXF 393 renal and in the assay on BT-549 breast was greater than 100 µM each time. Moreover, the TGI in the assay with MCF7 breast, in the assay with HS 578T breast and in the assay on RPMI-8226 leukemia was greater than 100 µM each time.

As to `O=C1C=C[C@@H](COC2OC(CO)C(O)C(O)C2O)O1` (some centres undefined), the GI50 in the assay on NCI-H226 lung is 17.6 µM; in the assay with HOP-92 NSCLC it was 14.3 µM; in the assay with RXF 393 renal, 2.72 µM; in the assay with MCF7 breast, 1.24 µM; with RPMI-8226 leukemia, 2.45 µM. In addition, the total growth inhibition concentration (TGI) in the assay on NCI-H226 lung is 48.9 µM and 96.9 µM; in the assay with HOP-92 NSCLC, 30.3 µM and 36 µM; with SW-620 colon, 16.1 µM and 15.8 µM; with CAKI-1 renal it was 40 µM; in the assay on RXF 393 renal it was 8.82 µM; in the assay with MCF7 breast, 3.81 µM and 19.6 µM.

`CCN(CC)C(=S)N/N=C/c1cc([N+](=O)[O-])ccc1O`: the TGI is 12.6 µM with NCI-H226 lung; greater than 100 µM in the assay on SW-620 colon; 78 µM in the assay on PC-3 prostate; 51.3 µM in the assay on RXF 393 renal; 33.2 µM in the assay on BT-549 breast; 7.05 µM with MCF7 breast. The compound also came in with a TGI in the assay with HS 578T breast of 95.7 µM.

Turning to `O=C1c2cc3c(cc2-c2c1c1ccc(F)cc1c(=O)n2C[C@H](O)[C@@H](O)[C@H](O)CO)OCO3`, the GI50 in the assay on HOP-92 NSCLC is 0.18 µM; with CAKI-1 renal, 0.0383 µM; with PC-3 prostate it was 0.205 µM; in the assay with RXF 393 renal, 0.162 µM; with BT-549 breast, 0.0687 µM; in the assay with MCF7 breast it was 0.0119 µM. Also, the GI50 in the assay on RPMI-8226 leukemia was 0.422 µM. The concentration for total growth inhibition (TGI) was 0.69 µM in the assay with HOP-92 NSCLC; 0.371 µM in the assay with CAKI-1 renal; greater than 100 µM with PC-3 prostate; 0.432 µM in the assay on RXF 393 renal; 0.492 µM in the assay with BT-549 breast; 0.151 µM with MCF7 breast. This compound returned a TGI in the assay on RPMI-8226 leukemia of 4.18 µM.

On to `Cc1cc(Nc2ccc(S(=O)(=O)O)c3cc(S(=O)(=O)O)cc(S(=O)(=O)O)c23)c2ccccc2n1`, for which the concentration for total growth inhibition (TGI) in the assay with NCI-H226 lung, in the assay with SW-620 colon, with CAKI-1 renal, in the assay on PC-3 prostate, in the assay with RXF 393 renal and in the assay with BT-549 breast was greater than 100 µM in each case. Moreover, the TGI in the assay on MCF7 breast, in the assay on HS 578T breast and with RPMI-8226 leukemia was greater than 100 µM each time.

For the compound `COc1cccc(C2SC(N)=Nc3c2c(C)nn3C(=O)c2ccccc2O)c1` (centres undefined), the TGI was greater than 7.78 µM in the assay with NCI-H226 lung; greater than 10 µM in the assay with HOP-92 NSCLC; greater than 10 µM in the assay on SW-620 colon; greater than 10 µM in the assay on CAKI-1 renal; greater than 10 µM with PC-3 prostate; greater than 10 µM in the assay on RXF 393 renal. The TGI with BT-549 breast, in the assay with MCF7 breast and with RPMI-8226 leukemia was greater than 10 µM each time.

For `C#CCn1c(=O)c2ccccc2n(CC#C)c1=O`, the TGI in the assay with NCI-H226 lung, in the assay with HOP-92 NSCLC, with SW-620 colon, in the assay with CAKI-1 renal, in the assay with PC-3 prostate and in the assay on RXF 393 renal was greater than 10 µM in each case. Moreover, the TGI with MCF7 breast, in the assay on HS 578T breast and in the assay with RPMI-8226 leukemia was greater than 10 µM each time.

In the case of `COC(=O)[C@@H](O)[C@](O)(CCC(C)C)C(=O)O[C@@H]1C(OC)=C[C@]23CCCN2CCc2cc4c(cc2[C@H]13)OCO4`, the TGI in the assay with NCI-H226 lung is 6.31 µM; in the assay on HOP-92 NSCLC, 6.26 µM; with SW-620 colon, 9.94 µM; in the assay on CAKI-1 renal, 7.36 µM; with RXF 393 renal, 5.41 µM; in the assay on MCF7 breast it was 2.18 µM. In the assay with RPMI-8226 leukemia, this compound displayed a TGI of 6.06 µM.

With `CC1(C(=O)O)CCC2(C)CCC3(C)C(=CC(=O)C4C5(C)CCC(O)C(C)(C)C5CCC43C)C2C1` (centres undefined), the TGI in the assay on NCI-H226 lung is greater than 100 µM; in the assay with SW-620 colon it was greater than 100 µM; with CAKI-1 renal it was greater than 100 µM; in the assay on PC-3 prostate it was greater than 100 µM; in the assay with RXF 393 renal, 83 µM; in the assay on BT-549 breast, 42.3 µM. For the same compound, the TGI was greater than 100 µM in the assay on MCF7 breast and 65.7 µM with HS 578T breast.

As usually defined, the TGI is the concentration at which net growth stops. Low readings indicate more potent growth arrest, high ones less potent growth arrest. A word on the GI50: it is the concentration that inhibits growth by half.

The record behind these values is PubChem BioAssay (NCI).
